# Source: patent EP3521435A1, “A HIGH STRINGENCY SELECTION SYSTEM FOR PROTEIN EXPRESSION IN PROLINE-AUXOTROPHIC CELLS” (Bayer AG, priority 2018, dated 2019)
# Experiments:
# CHO-K1 cells [1] = experiment: Flow cytometric analysis of GFP expression (MFI, high fluorescing cells) in stably selected cell populations; format: cell-based, Chinese hamster
# Method: (§1) To efficiently test the impact of different procedures on improving selection stringency, experimental testing in stable cell populations was performed. As test molecules, enhanced green fluorescent protein (GFP) as well as a human IgG1 were chosen. CHO-K1 cells adapted to growth in suspension in defined medium were obtained from SAFC and cultivated in EX-CELL CD CHO Fusion medium (SAFC 14365C). Custom-made EX-CELL CD CHO Fusion medium without L-Proline (Pro) and without L-Ornithine (Orn) ("proline-free medium") was obtained from SAFC. The expression vector system was based on modified versions of "CET 1019 AS-puro-SceI" and "CET 1019 AD-puro-SceI" for GFP and human IgG1, respectively, from Merck-Millipore, containing the Puromycin selection marker (Puromycin N-acetyl-transferase) known to exert a high selection stringency. To minimize variations in cell populations derived from using different transfections or different vectors, the first series of experiments were conducted using vectors into which a P5CS expression cassette was cloned upstream of a UCOE element, in addition to the Puromycin selection marker present downstream of a gene of interest. This way, it was possible to pool different transfections using the same vector to obtain a common starting point, and split the mixture according to different selection conditions, minimizing any variations that are not due to selection conditions themselves. Expression of long and short isoform of murine P5CS (Protein: Delta-1-pyrroline-5-carboxylate synthase; Gene: Aldh18a1; UniProtKB accession number: Q9Z110-1 & Q9Z110-2) was driven by a SV40 promoter. A SV40 polyadenylation sequence was used at the 3' end of the gene. More details can be found in Table 1. Typically, CHO cells were cultivated in EX-CELL CD CHO Fusion medium containing 6 mM GlutaMAX (Thermo Fisher, 35050-38) ("CD-Fusion medium") at 37 °C with 5% CO2. Cells were grown to logarithmic phase under shaking conditions for transfections. 1e7 cells/cuvette were transfected using nucleofection (Amaxa Nucleofector II, following the manufacturer's recommendations) with 5 µg of linearized DNA. After transfection, cells were taken up in 1 ml medium and transferred into 1 well of a 6 well microtiter plate (MTP) already containing 1 ml medium. The cells were incubated for 24 h without shaking, after which 9 ml medium were added and cells were washed (either in standard or proline-free medium). Multiple transfections were pooled, if applicable. Cells were adjusted to 2e5 viable cells/ml and 10 ml were transferred to T-25 flasks. Reference cell populations were selected using 10 µg/ml Puromycin in CD-Fusion medium. For P5CS-based selection, EX-CELL CD CHO Fusion medium (custom-made, SAFC) containing 6 mM GlutaMAX without proline and without ornithine was used ("proline-free" or "CD-Fusion w/o Pro" medium), with or without additional selection pressure.
# (§2) Cell viability of the different populations was monitored over time. As soon as cell populations appeared to recover from selection pressure, cells were transferred to Shake Flask or TubeSpins for expansion in suspension under shaking conditions. Subsequently, stable cell populations transfected with IgG were seeded at 2e5 viable cells/ml for batch fermentation without selection pressure (i.e. standard CD-Fusion medium containing proline and no other selective agents). The cells were cultivated for 5-10 days, viable cell densities and productivity were monitored over time. IgG titers were determined using Poros A-HPLC method. Typically, final batch titers were recorded at a time point at which majority of cultures had around 70% viability. Stable cell populations transfected with GFP vector were subjected to analysis by flow cytometry using Guava easyCyte 8HT Benchtop Flow Cytometer (Millipore). 250 µl of cell culture were transferred to 96 MTP and washed with PBS. Dead cells were excluded from analysis using propidium iodide (PI). […]
# CHO-K1 cells [2] = experiment: Cell viability post-transfection of transfected cell populations under selection conditions; format: cell-based, Chinese hamster
# Method: as §1, §2
# [3] = Table 11, day 19 post-transfection, pJF1555, CD-Fusion + 10 µg/ml Puromycin
# [4] = Table 11, day 19 post-transfection, pJF1555, CD-Fusion w/o Pro + 0.25mM Pro + 10 µg/ml Puromycin
# [5] = Table 13, day 19 post-transfection, pJF1555, CD-Fusion + 10 µg/ml Puromycin
# [6] = Table 13, day 19 post-transfection, pJF1555, CD-Fusion w/o Pro + 0.25 mM Pro + 10 µg/ml Puromycin
# [7] = Table 13, day 19 post-transfection, pJF1576 (control, human IgG1 vector), CD-Fusion + 10 µg/ml Puromycin
# [8] = day 15 post-transfection, pJF1555, CD Fusion + 10 µg/ml Puromycin
# [9] = day 15 post-transfection, pJF1555, CD-Fusion w/o Pro + 10 µg/ml Puromycin
# [10] = day 15 post-transfection, pJF1555, CD-Fusion w/o Pro + 0.25 mM Pro + 10 µg/ml Puromycin
# [11] = day 20 post-transfection, pJF1556, CD Fusion + 10 µg/ml Puromycin
# [12] = day 20 post-transfection, pJF1556, CD-Fusion w/o Pro + 10 µg/ml Puromycin
# [13] = day 20 post-transfection, pJF1556, CD-Fusion w/o Pro + 0.25 mM Pro + 10 µg/ml Puromycin
# [14] = day 22 post-transfection, pJF2053, CD-Fusion + 10 µg/ml Puromycin
# [15] = day 22 post-transfection, pJF2222, CD-Fusion + 10 µg/ml Puromycin
# [16] = day 29 post-transfection, pJF2053, CD-Fusion + 10 µg/ml Puromycin
# [17] = MOCK, CD Fusion + 10 µg/ml Puromycin
# [18] = MOCK, CD-Fusion w/o Pro + 10 µg/ml Puromycin
# [19] = MOCK, CD-Fusion w/o Pro + 0.25 mM Pro + 10 µg/ml Puromycin
# [20] = pJF1555, CD-Fusion w/o Pro + 0.25 mM Pro + 10 µg/ml Puromycin
# [21] = pJF1576, CD-Fusion + 10 µg/ml Puromycin
# [22] = pJF2053, CD-Fusion + 10 µg/ml Puromycin
compound,measurement,setting,value
COc1ccc(C[C@H](N)C(=O)N[C@H]2[C@@H](O)[C@H](n3cnc4c(N(C)C)ncnc43)O[C@@H]2CO)cc1 [Puromycin],Frequency of high fluorescing cells,"CHO-K1 cells [1]; Table 9, day 15 post-transfection, pJF1555, CD-Fusion w/o Pro + 0.25 mM Pro + 10 µg/ml Puromycin",4.3%
same,Frequency of high fluorescing cells,CHO-K1 cells [1]; [3],3.4%
same,Median Fluorescence Intensity (MFI) (yellow),CHO-K1 cells [1]; [3],13092
same,Frequency of high fluorescing cells,CHO-K1 cells [1]; [4],3.6%
same,Median Fluorescence Intensity (MFI) (yellow),CHO-K1 cells [1]; [4],12860
same,Frequency of high fluorescing cells,CHO-K1 cells [1]; [5],1.0%
same,Median Fluorescence Intensity (MFI) (yellow),CHO-K1 cells [1]; [5],6167
same,Frequency of high fluorescing cells,CHO-K1 cells [1]; [6],1.5%
same,Median Fluorescence Intensity (MFI) (yellow),CHO-K1 cells [1]; [6],6625
same,Frequency of high fluorescing cells,CHO-K1 cells [1]; [7],0.1%
same,Median Fluorescence Intensity (MFI) (yellow),CHO-K1 cells [1]; [7],9
same,Frequency of high fluorescing cells,CHO-K1 cells [1]; [8],5.1%
same,Median Fluorescence Intensity (MFI) (yellow),CHO-K1 cells [1]; [8],5072
same,Frequency of high fluorescing cells,CHO-K1 cells [1]; [9],5.1%
same,Median Fluorescence Intensity (MFI) (yellow),CHO-K1 cells [1]; [9],5102
same,Frequency of high fluorescing cells,CHO-K1 cells [1]; [10],4.6%
same,Median Fluorescence Intensity (MFI) (yellow),CHO-K1 cells [1]; [10],4394
same,Frequency of high fluorescing cells,CHO-K1 cells [1]; [11],6.9%
same,Median Fluorescence Intensity (MFI) (yellow),CHO-K1 cells [1]; [11],7827
same,Frequency of high fluorescing cells,CHO-K1 cells [1]; [12],8.7%
same,Median Fluorescence Intensity (MFI) (yellow),CHO-K1 cells [1]; [12],9370
same,Frequency of high fluorescing cells,CHO-K1 cells [1]; [13],9.6%
same,Median Fluorescence Intensity (MFI) (yellow),CHO-K1 cells [1]; [13],8783
same,Frequency of high fluorescing cells,CHO-K1 cells [1]; [14],2.5%
same,Median Fluorescence Intensity (MFI) (yellow),CHO-K1 cells [1]; [14],11308
same,Frequency of high fluorescing cells,CHO-K1 cells [1]; [15],4.2%
same,Median Fluorescence Intensity (MFI) (yellow),CHO-K1 cells [1]; [15],11476
same,Frequency of high fluorescing cells,CHO-K1 cells [1]; [16],2.3%
same,Median Fluorescence Intensity (MFI) (yellow),CHO-K1 cells [1]; [16],11502
same,Viability on day 12 post-transfection,CHO-K1 cells [2]; [17],25%
same,Viability on day 13 post-transfection,CHO-K1 cells [2]; [17],9%
same,Viability on day 14 post-transfection,CHO-K1 cells [2]; [17],19%
same,Viability on day 13 post-transfection,CHO-K1 cells [2]; [18],14%
same,Viability on day 14 post-transfection,CHO-K1 cells [2]; [18],23%
same,Viability on day 12 post-transfection,CHO-K1 cells [2]; [19],23%
same,Viability on day 13 post-transfection,CHO-K1 cells [2]; [19],13%
same,Viability on day 14 post-transfection,CHO-K1 cells [2]; [19],20%
same,Viability on day 12 post-transfection,"CHO-K1 cells [2]; Table 8, pJF1555, CD-Fusion w/o Pro + 0.25 mM Pro + 10 µg/ml Puromycin",83%
same,Viability on day 12 post-transfection,"CHO-K1 cells [2]; Table 12, pJF1555, CD-Fusion + 10 µg/ml Puromycin",86%
same,Viability on day 12 post-transfection,"CHO-K1 cells [2]; Table 12, pJF1555, CD-Fusion w/o Pro + 0.25 mM Pro + 10 µg/ml Puromycin",63%
same,Viability on day 14 post-transfection,"CHO-K1 cells [2]; pJF1555, CD Fusion + 10 µg/ml Puromycin",75%
same,Viability on day 19 post-transfection,"CHO-K1 cells [2]; pJF1555, CD-Fusion + 10 µg/ml Puromycin",49%
same,Viability on day 14 post-transfection,"CHO-K1 cells [2]; pJF1555, CD-Fusion w/o Pro + 10 µg/ml Puromycin",79%
same,Viability on day 14 post-transfection,CHO-K1 cells [2]; [20],79%
same,Viability on day 19 post-transfection,CHO-K1 cells [2]; [20],48%
same,Viability on day 13 post-transfection,"CHO-K1 cells [2]; pJF1556, CD Fusion + 10 µg/ml Puromycin",81%
same,Viability on day 13 post-transfection,"CHO-K1 cells [2]; pJF1556, CD-Fusion w/o Pro + 10 µg/ml Puromycin",92%
same,Viability on day 13 post-transfection,"CHO-K1 cells [2]; pJF1556, CD-Fusion w/o Pro + 0.25 mM Pro + 10 µg/ml Puromycin",90%
same,Viability on day 12 post-transfection,CHO-K1 cells [2]; [21],78%
same,Viability on day 21 post-transfection,CHO-K1 cells [2]; [21],98.4%
same,Viability on day 12 post-transfection,"CHO-K1 cells [2]; pJF1576, CD-Fusion w/o Pro + 0.25 mM Pro + 10 µg/ml Puromycin",79%
same,Viability on day 21 post-transfection,"CHO-K1 cells [2]; pJF1579, CD-Fusion + 10 µg/ml Puromycin",98.8%
same,Viability on day 15 post-transfection,CHO-K1 cells [2]; [22],86.6%
same,Viability on day 22 post-transfection,CHO-K1 cells [2]; [22],98.6%
same,Viability on day 22 post-transfection,"CHO-K1 cells [2]; pJF2222, CD-Fusion + 10 µg/ml Puromycin",98.7%
